Experimental findings from BindingDB's records for doi:10.2174/1568007033482805 (University of Sydney, 2003) are described below.

The assay addresses T1, Gamma-aminobutyric acid receptor subunit alpha-3 (Homo sapiens, UniProt P34903).
T1 sequence (P34903 whole entry): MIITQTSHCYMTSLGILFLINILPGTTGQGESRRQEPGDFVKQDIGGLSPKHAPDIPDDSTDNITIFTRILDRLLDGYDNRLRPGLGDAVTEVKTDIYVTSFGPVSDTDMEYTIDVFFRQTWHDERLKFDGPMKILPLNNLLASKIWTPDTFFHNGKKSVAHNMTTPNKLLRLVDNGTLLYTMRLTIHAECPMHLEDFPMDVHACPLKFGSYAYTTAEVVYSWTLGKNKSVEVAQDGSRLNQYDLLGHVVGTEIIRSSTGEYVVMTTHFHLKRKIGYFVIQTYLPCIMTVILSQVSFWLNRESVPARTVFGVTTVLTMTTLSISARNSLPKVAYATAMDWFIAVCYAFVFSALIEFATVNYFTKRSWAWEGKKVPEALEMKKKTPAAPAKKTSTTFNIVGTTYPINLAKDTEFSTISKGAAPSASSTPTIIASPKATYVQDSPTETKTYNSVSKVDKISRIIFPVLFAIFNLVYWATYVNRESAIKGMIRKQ

Take `O=c1o[nH]c2c1CCNC2` [NSC_130546]: the affinity corresponds to a Ki of 7.9 µM.

`O=c1[nH][nH]c2c1CCNC2` [THIP, Aza-]: the Ki (in general, a measure of affinity in units of concentration, obtained from inhibition or displacement) was above 10 µM.
